Assay results from US6537948B1, “Uracil compounds and use thereof” (Sumitomo Chemical Company, Limited, priority 2000, dated 2003).

Tests used:
Format in all cases: in vivo
[1] = tested on: velvetleaf (Abutilon theophrasti); assay: Test Example 2: soil surface treatment of field; settings: soil surface spray, dosage 500 g/ha, 19 days after application
Text: (§1) A cylindrical plastic pot having a diameter of 10 cm and a depth of 10 cm was filled with soil and then seeded with ivyleaf morningglory (Ipomoea hederacea) and velvetleaf (Abutilon theophrasti). Then, each of the compounds 1-2, 1-42, 1-48, 2-2, 2-7, 2-42, 2-45, 3-2, 3-12, 4-7, 4-85, 5-12-R, 5-12-S, 5-17, 6-2, 7-2, 7-6, 7-8, 7-12, 7-48, 7-50, 7-84, 7-118, 7-119, 7-125, 9-7, 9-27 and 9-45 was formulated into an emulsifiable concentrate according to Formulation Example 2 and then diluted to the prescribed amount with water, and the dilution was uniformly sprayed over the surface of the soil with a sprayer at a rate of 1000 liters per hectare. After the application, the test plants were grown in the greenhouse for 19 days, and the herbicidal activity was examined.

[2] = tested on: ivyleaf morningglory (Ipomoea hederacea); assay: Test Example 2: soil surface treatment of field; settings: soil surface spray, dosage 500 g/ha, 19 days after application
Text: as §1

[3] = tested on: velvetleaf (Abutilon theophrasti); assay: Test Example 1: foliar treatment of field; settings: foliar spray, dosage 125 g/ha, 16 days after application
Experimental: (§2) A cylindrical plastic pot having a diameter of 10 cm and a depth of 10 cm was filled with soil and then seeded with ivyleaf morningglory (Ipomoea hederacea) and velvetleaf (Abutilon theophrasti). These test plants were grown in a greenhouse for 10 days. Then, each of compounds 1-2, 1-42, 1-45, 1-48, 2-2, 2-7, 2-42, 2-45, 3-2, 3-12, 4-7, 4-85, 5-12-R, 5-12-S, 5-17, 6-2, 7-2, 7-6, 7-8, 7-12, 7-48, 7-50, 7-84, 7-118, 7-119, 7-125, 9-7, 9-27 and 9-45 was formulated into an emulsifiable concentrate according to Formulation Example 2 and then diluted to the prescribed amount with water containing a spreading agent and the dilution was uniformly sprayed over the foliage of the test plants with a sprayer at a rate of 1000 liters per hectare. After the application, the test plants were grown in the greenhouse for 16 days, and the herbicidal activity was determined.

[4] = tested on: ivyleaf morningglory (Ipomoea hederacea); assay: Test Example 1: foliar treatment of field; settings: foliar spray, dosage 125 g/ha, 16 days after application
Experimental: as §2

Cn1c(C(F)(F)F)cc(=O)n(-c2cc(Oc3cccnc3OCC(=O)OC3CCCC3)c(Cl)cc2F)c1=O [Compound 7-125, 3-{2-chloro-4-fluoro-5-[3-methyl-2,6-dioxo-4-(trifluoromethyl)-1,2,3,6-tetrahydropyrimidin-1-yl]phenoxy}-2-(c-pentyloxycarbonyl)methoxypyridine]
completely controlled: growth of velvetleaf (herbicidal activity) [1] | growth of ivyleaf morningglory (herbicidal activity) [2] | growth of velvetleaf (herbicidal activity) [3] | growth of ivyleaf morningglory (herbicidal activity) [4]

Cn1c(C(F)(F)F)cc(=O)n(-c2cc(Oc3cccnc3OCC(=O)O)c(Cl)cc2F)c1=O [Compound 7-6, 3-{2-chloro-4-fluoro-5-[3-methyl-2,6-dioxo-4-(trifluoromethyl)-1,2,3,6-tetrahydropyrimidin-1-yl]phenoxy}-2-carboxymethoxypyridine]
completely controlled: growth of velvetleaf (herbicidal activity) [1] | growth of ivyleaf morningglory (herbicidal activity) [2] | growth of velvetleaf (herbicidal activity) [3] | growth of ivyleaf morningglory (herbicidal activity) [4]

CCCCCOC(=O)COc1ncccc1Oc1cc(-n2c(=O)cc(C(F)(F)F)n(C)c2=O)c(F)cc1Cl [Compound 7-50, 3-{2-chloro-4-fluoro-5-[3-methyl-2,6-dioxo-4-(trifluoromethyl)-1,2,3,6-tetrahydropyrimidin-1-yl]phenoxy}-2-(n-pentyloxycarbonyl)methoxypyridine]
completely controlled: growth of velvetleaf (herbicidal activity) [1] | growth of ivyleaf morningglory (herbicidal activity) [2] | growth of velvetleaf (herbicidal activity) [3] | growth of ivyleaf morningglory (herbicidal activity) [4]

COC(=O)[C@@H](C)Oc1n[nH]c(C)c1Oc1cc(-n2c(=O)cc(C(F)(F)F)n(C)c2=O)c(F)cc1Cl [Compound 5-12-R, (R)-3-{1-(methoxycarbonyl)ethoxy}-4-{2-chloro-4-fluoro-5-[3-methyl-2,6-dioxo-4-(trifluoromethyl)-1,2,3,6-tetrahydropyrimidin-1-yl]phenoxy}-5-methylpyrazole]
completely controlled: growth of velvetleaf (herbicidal activity) [1] | growth of ivyleaf morningglory (herbicidal activity) [2] | growth of velvetleaf (herbicidal activity) [3] | growth of ivyleaf morningglory (herbicidal activity) [4]

COC(=O)C(C)Oc1nccc(Oc2cc(-n3c(=O)cc(C(F)(F)F)n(C)c3=O)c(F)cc2Cl)n1 (centres unmarked) [Compound 3-2, methyl 2-([4-{2-chloro-4-fluoro-5-[3-methyl-2,6-dioxo-4-(trifluoromethyl)-1,2,3,6-tetrahydropyrimidin-1-yl]phenoxy}pyrimidin-2-yl]oxy)propionate]
completely controlled: growth of velvetleaf (herbicidal activity) [1] | growth of ivyleaf morningglory (herbicidal activity) [2] | growth of velvetleaf (herbicidal activity) [3] | growth of ivyleaf morningglory (herbicidal activity) [4]

COC(=O)COc1cccnc1Oc1cc(-n2c(=O)cc(C(F)(F)F)n(C)c2=O)c(F)cc1Cl [Compound 2-7, 2-{2-chloro-4-fluoro-5-[3-methyl-2,6-dioxo-4-(trifluoromethyl)-1,2,3,6-tetrahydropyrimidin-1-yl]phenoxy}-3-(methoxycarbonyl)methoxypyridine]
completely controlled: growth of velvetleaf (herbicidal activity) [1] | growth of ivyleaf morningglory (herbicidal activity) [2] | growth of velvetleaf (herbicidal activity) [3] | growth of ivyleaf morningglory (herbicidal activity) [4]

COC(=O)C(C)Oc1ccnc(Oc2cc(-n3c(=O)cc(C(F)(F)F)n(C)c3=O)c(F)cc2Cl)n1 (centres unmarked) [Compound 1-2, methyl 2-([2-{2-chloro-4-fluoro-5-[3-methyl-2,6-dioxo-4-(trifluoromethyl)-1,2,3,6-tetrahydropyrimidin-1-yl]phenoxy}pyrimidin-4-yl]oxy)propionate]
completely controlled: growth of velvetleaf (herbicidal activity) [1] | growth of ivyleaf morningglory (herbicidal activity) [2] | growth of velvetleaf (herbicidal activity) [3] | growth of ivyleaf morningglory (herbicidal activity) [4]

COC(=O)COc1ncccc1Oc1cc(-n2c(=O)cc(C(F)(F)F)n(C)c2=O)c(F)cc1Br [Compound 9-7, 3-{2-bromo-4-fluoro-5-[3-methyl-2,6-dioxo-4-(trifluoromethyl)-1,2,3,6-tetrahydropyrimidin-1-yl]phenoxy}-2-(methoxycarbonyl)methoxypyridine]
completely controlled: growth of velvetleaf (herbicidal activity) [1] | growth of ivyleaf morningglory (herbicidal activity) [2] | growth of velvetleaf (herbicidal activity) [3] | growth of ivyleaf morningglory (herbicidal activity) [4]

COC(=O)COc1ncccc1Oc1cc(-n2c(=O)cc(C(F)(F)F)n(C)c2=O)c(F)cc1[N+](=O)[O-] [Compound 9-45, 3-{4-fluoro-5-[3-methyl-2,6-dioxo-4-(trifluoromethyl)-1,2,3,6-tetrahydropyrimidin-1-yl]-2-nitrophenoxy}-2-(methoxycarbonyl)methoxypyridine]
completely controlled: growth of velvetleaf (herbicidal activity) [1] | growth of ivyleaf morningglory (herbicidal activity) [2] | growth of velvetleaf (herbicidal activity) [3] | growth of ivyleaf morningglory (herbicidal activity) [4]

COC(=O)C(C)Oc1cccnc1Oc1cc(-n2c(=O)cc(C(F)(F)F)n(C)c2=O)c(F)cc1Cl (centres unmarked) [Compound 2-2, 2-{2-chloro-4-fluoro-5-[3-methyl-2,6-dioxo-4-(trifluoromethyl)-1,2,3,6-tetrahydropyrimidin-1-yl]phenoxy}-3-{1-(methoxycarbonyl)ethoxy}pyridine]
completely controlled: growth of velvetleaf (herbicidal activity) [1] | growth of ivyleaf morningglory (herbicidal activity) [2] | growth of velvetleaf (herbicidal activity) [3] | growth of ivyleaf morningglory (herbicidal activity) [4]

COC(=O)COc1cccc(Oc2cc(-n3c(=O)cc(C(F)(F)F)n(C)c3=O)c(F)cc2Cl)n1 [Compound 2-45, 2-{2-chloro-4-fluoro-5-[3-methyl-2,6-dioxo-4-(trifluoromethyl)-1,2,3,6-tetrahydropyrimidin-1-yl]phenoxy}-6-(methoxycarbonyl)methoxypyridine]
completely controlled: growth of velvetleaf (herbicidal activity) [1] | growth of ivyleaf morningglory (herbicidal activity) [2] | growth of velvetleaf (herbicidal activity) [3] | growth of ivyleaf morningglory (herbicidal activity) [4]

COC(=O)C(C)Oc1cccc(Oc2cc(-n3c(=O)cc(C(F)(F)F)n(C)c3=O)c(F)cc2Cl)n1 (centres unmarked) [Compound 2-42, 2-{2-chloro-4-fluoro-5-[3-methyl-2,6-dioxo-4-(trifluoromethyl)-1,2,3,6-tetrahydropyrimidin-1-yl]phenoxy}-6-{1-(methoxycarbonyl)ethoxy}pyridine]
completely controlled: growth of velvetleaf (herbicidal activity) [1] | growth of ivyleaf morningglory (herbicidal activity) [2] | growth of velvetleaf (herbicidal activity) [3] | growth of ivyleaf morningglory (herbicidal activity) [4]

COC(=O)[C@H](C)Oc1n[nH]c(C)c1Oc1cc(-n2c(=O)cc(C(F)(F)F)n(C)c2=O)c(F)cc1Cl [Compound 5-12-S, (S)-3-{1-(methoxycarbonyl)ethoxy}-4-{2-chloro-4-fluoro-5-[3-methyl-2,6-dioxo-4-(trifluoromethyl)-1,2,3,6-tetrahydropyrimidin-1-yl]phenoxy}-5-methylpyrazole]
completely controlled: growth of velvetleaf (herbicidal activity) [1] | growth of ivyleaf morningglory (herbicidal activity) [2] | growth of velvetleaf (herbicidal activity) [3] | growth of ivyleaf morningglory (herbicidal activity) [4]

COC(=O)C(C)Oc1ccc(Oc2cc(-n3c(=O)cc(C(F)(F)F)n(C)c3=O)c(F)cc2Cl)cn1 (centres unmarked) [Compound 7-12, 5-{2-chloro-4-fluoro-5-[3-methyl-2,6-dioxo-4-(trifluoromethyl)-1,2,3,6-tetrahydropyrimidin-1-yl]phenoxy}-2-{1-(methoxycarbonyl)ethoxy}pyridine]
completely controlled: growth of velvetleaf (herbicidal activity) [1] | growth of ivyleaf morningglory (herbicidal activity) [2] | growth of velvetleaf (herbicidal activity) [3] | growth of ivyleaf morningglory (herbicidal activity) [4]
